Patent US20120115895A1, “TRICYCLIC INDOLE-DERIVED SPIRO DERIVATIVES AS CRTH2 MODULATORS” (Merck Serono S.A., priority 2009, published 2012)

Assays:
[1] = In vivo pharmacokinetic evaluation in mouse; set-up: species or system C57BL/6 female mice
Procedure: (§1) In order to study the pharmacokinetic (PK) profile of test compounds in vivo, Sprague Dawley male rats or C57BL/6 female mice were dosed intravenously or after oral gavage. For both species, test compounds were dosed in solution at 1 mg/kg for i.v. route (10% ethanol, 10% N,N-dimethylacetamide, 30% propylene glycol, 50% water, v/v) and in suspension at 5 mg/kg (0.5% carboxymethylcellulose suspension, containing 0.25% Tween 20 in water) for oral gavage. PK profile in rat was obtained from 3 animals per dosing route and mouse PK profile was determined from 3 animals for each time points. The volume of administration was 2 mL/kg for i.v. dosing in both species and either 5 mL/kg (rat) or 10 mL/kg (mouse) for oral gavage. Blood samples (100 µL/time point) were collected at 0.083 (5 min), 0.25, 0.5, 1, 4, 7 and 24 hours post-dose for i.v. dosing, and at 0.5, 1, 4, 7 and 24 h for oral dosing, into heparin-Li+ containing tubes. For rats, all blood samples were collected trough a catheter in the carotid artery (placed in the artery the day before the experiment), under light isoflurane anesthesia, and stored on ice until centrifugation and plasma isolation. For mouse, blood samples were collected from intracardiac puncture at sacrifice at each time point and processed as described above for the rat. Plasma samples were stored frozen until analysis (−20° C. to −70° C.). For bioanalysis, samples were processed by protein precipitation (acetonitrile, formic acid 0.1%, addition of 3 volumes) after addition of one internal standard and analysed using a sensitive and selective LC/MS/MS method. An aliquot of the resulting supernatant was subject to LC/MS/MS analysis using a reverse phase column (Waters Xterra, C8, (3.5 μm particle size, 2.1×50 mm) and a short gradient (1 min) from (Solvent A) 85% water, 15% acetonitrile and 0.1% formic acid to (Solvent B) 90% acetonitrile, 10% water and 0.1% formic acid followed by isocratic conditions of Solvent B for 3.5 min at 0.4 mL/min. Column effluent was monitored using a Sciex API 4000 triple quadrupole mass spectrometer with a Turbo V electrospray ion source. Unknown concentrations of test compounds were determined using a calibration curve ranging from 1 to 3000 ng/mL.

[2] = In vivo pharmacokinetic evaluation in rat; set-up: species or system Sprague Dawley male rats
Procedure: as §1

[3] = system: OVA-induced eosinophil recruitment in lung; assay: OVA-induced lung eosinophilia in mice; format: in vivo, BALB/c mice; settings: oral route, dose of 30 mg/Kg
Procedure: BALB/c mice (6-8 weeks old) were immunized with ovalbumin (10 μg i.p) on day 0 and 7. In order to elicit a local inflammatory response in the lung, mice were challenged between day's 15-17 with a nebulised solution of ovalbumin (10 μg/ml; De Vilibiss Ultraneb 2000, once daily for 30 min during the 3 days). On each separate day between 15 and 17 each animal received via oral gavage the test compound, at t−1 h and t+7 h with respect to OVA exposure at t=0 h. Eight hours after the final OVA challenge, bronchoalveolar lavage (BAL) was then carried out. Total cell numbers in the BAL fluid samples were measured using a haemocytometer. Cytospin smears of the BAL fluid samples were prepared by centrifugation at 1200 rpm for 2 min at room temperature and stained using a DiffQuik stain system (Dade Behring) for differential cell counts.

CRTH2 [4] = biological target: T1, CRTH2 (Homo sapiens, UniProt Q9Y5Y4); assay: Radioligand binding Scintillation Proximity Assay ([3H]PGD2, hCRTH2-CHO cell membranes); set-up: host or cells: CHO cells
T1 sequence (Q9Y5Y4 1-395): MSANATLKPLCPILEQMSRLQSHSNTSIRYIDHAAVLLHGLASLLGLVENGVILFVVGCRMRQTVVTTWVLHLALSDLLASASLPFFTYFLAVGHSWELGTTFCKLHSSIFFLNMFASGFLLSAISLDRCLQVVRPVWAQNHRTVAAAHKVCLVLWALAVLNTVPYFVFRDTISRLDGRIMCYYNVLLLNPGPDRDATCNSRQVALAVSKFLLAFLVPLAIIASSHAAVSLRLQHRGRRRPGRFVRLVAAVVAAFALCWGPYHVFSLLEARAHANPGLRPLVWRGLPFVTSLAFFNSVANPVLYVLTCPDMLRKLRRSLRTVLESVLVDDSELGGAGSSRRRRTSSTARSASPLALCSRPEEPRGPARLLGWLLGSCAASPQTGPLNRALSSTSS
Procedure: Adherent CHO cells expressing hCRTH2 (Euroscreen, Belgium) were cultured in 225 cm2 cell culture flasks (Corning, USA) in 30 ml of medium. After two rinses of phosphate buffered saline (PBS), cells were harvested in 10 ml of PBS containing 1 mM EDTA, centrifuged at 500×g for 5 min at 4° C. and frozen at −80° C. The pellet was re-suspended in 50 mM Tris-HCl, pH 7.4, 2 mM EDTA, 250 mM Sucrose, containing protease inhibitor cocktail tablets, (Complete EDTA-free, Roche, Germany) and incubated 30 min at 4° C. Cells were disrupted by nitrogen cavitation (Parr Instruments, USA) at 4° C. (800 p.s.i. for 30 min), and centrifuged at 500×g for 10 min at 4° C. Pellet containing nuclei and cellular debris was discarded and supernatant was centrifuged 60 min at 4° C. at 45000×g. Membrane pellet was re-suspended in storage buffer (10 mM HEPES/KOH pH 7.4, 1 mM EDTA, 250 mM sucrose, protease inhibitor cocktail tablets) using Dounce homogenization and frozen in liquid nitrogen, and stored at −80° C.
The inhibitory activity can be investigated by a radioligand binding Scintillation Proximity Assay (SPA) (Sawyer et al., Br. J. Pharmocol 2002, 137, 1163-72). The SPA radioligand binding assay was performed at room temperature in binding buffer (10 mM HEPES/KOH pH 7.4, 10 mM MnC12, with protease inhibitor cocktail tablets), containing 1.5 nM [3H]PGD2 (Perkin Elmer), 10-50 μg/ml of hCRTH2—CHO cell membrane protein and 2 mg/ml of Wheat-germ agglutinin Scintillation Proximity Assay beads (RPNQ0001, GE-Healthcare) in a final volume of 100 μl in 96 well plates (Corning, USA). Non-specific binding was determined in the presence of 10 μM PGD2 (Cayman, USA). Competing Compounds of Formula (I) were diluted in dimethylsulphoxide so that the total volume of dimethylsulfoxide was kept constant at 1% dimethylsulphoxide (Me2SO). Serial dilutions of 100 μM to 100 pM were prepared and 10 μl each of the compounds of Formula (I) stock solutions were added to the binding assay reagents and incubated for 90 min with agitation at room temperature. Binding activity was determined by using a 1450 Micro-beta scintillation counter (Wallac, UK).

CRTH2 [5] = biological target: T1, CRTH2; assay: PGD2-induced eosinophil cell shape assay in human whole blood; format: cell-based; set-up: endogenous in cells; host or cells: eosinophils in human whole blood from healthy volunteers; settings: 10 nM PGD2
Procedure: The test compounds were diluted in dimethylsulphoxide so that the total volume of dimethylsulfoxide was kept constant at 2% dimethylsulphoxide (Me2SO). Serial dilutions of 200 μM to 0.09 μM were prepared. Samples of 90 μl of human blood from healthy volunteers (Centre de Transfusion Sanguine de Genève) were pre-incubated in polypropylene Falcon tubes (BD 352063) for 20 minutes in a water bath at 37° C. with 10 μl of diluted compounds. For CRTH2 activation, 100 μl PGD2 (Cayman 12010) at 20 nM was added (10 nM final) to each tube and cells were maintained at 37° C. For negative control cells were treated with PBS. After 10 minutes, cell activation was stopped with 120 μl Formaldehyde 10% (4% final, Fluka 41650) and cells were rested for 10 minutes at room temperature. Fixed cells were transferred into polypropylene tubes and then treated for 1 hour in a water bath at 37° C. with 2 ml of Triton—Surfact-Amps X-100 (Pierce 28314) at 0.166% (0.13% Triton final). After several washes with PBS (red cells lysed progressively during washes, two washes are necessary), cells were analyzed by flow cytometry on a FACSCalibur.

In the case of `CN1C(=O)N(Cc2cc(Cl)ccc2F)C(=O)C12C(=O)N(CC(=O)O)c1ccc(Cl)cc12` (single isomer, unassigned; (+)) [Example 2, (+)-[5′-chloro-1-(5-chloro-2-fluorobenzyl)-3-methyl-2,2′,5-trioxospiro[imidazolidine-4,3′-indol]-1′(2′H)-yl]acetic acid], the Cmax ([1]; female, C57BL/6, mouse, plasma, mice, po, 5 mg/Kg) is reported as 691 ng/mL, the “oral bioavailability in mouse” value ([1]; mouse, in words) is reported as “significant improvement” and the Fz in mice ([1]; oral bioavailability, mice, 5 mg/kg po, 1 mg/kg i.v.) is reported as 39%. For the same compound, the Cmax ([2]; male, Sprague Dawley, rat, plasma, rats, po, 5 mg/Kg) was 489 ng/mL, the Fz in rats ([2]; oral bioavailability, rats, 5 mg/kg po, 1 mg/kg i.v.) was 37% and the “oral bioavailability in rat” value ([2]; rat, in words) was “significant improvement”. For the same compound, the “inhibition of OVA-induced eosinophil recruitment in lung” value [3] was 79%, the IC50 (CRTH2 [4]; 1.5 nM [3H]PGD2, hCRTH2-CHO membranes, SPA, read-out: IC50 binding) was 45 nM and the IC50 (CRTH2 [4]; comparison table with (+)-Enantiomer, read-out: Binding IC50) was 68 nM. For the same compound, the IC50 (CRTH2 [5]) was 150 nM.
